Reference: ChEMBL document CHEMBL3352497, “Design and optimization of novel 4-(2-fluorophenoxy)quinoline derivatives bearing a hydrazone moiety as c-Met kinase inhibitors” (Eur J Med Chem, 2014)

Columns and labels:
[1] = Antiproliferative activity against human MKN45 cells assessed as inhibition of cell growth after 72 hrs by MTT assay; assay type: functional, cell-based; conditions: MKN-45, 72 h
[2] = Antiproliferative activity against human U87MG cells assessed as inhibition of cell growth after 72 hrs by MTT assay; assay type: functional, cell-based, U-87MG ATCC; conditions: U-87 MG
[3] = tested on: HT-29; experiment: cells; conditions: Homo sapiens, HT-29, 72 h
Description: Antiproliferative activity against human HT-29 cells assessed as inhibition of cell growth after 72 hrs by MTT assay

[4] = cells; conditions: Homo sapiens, NCI-H460, 72 h
[5] = tested on: A549; experiment: cells; conditions: Homo sapiens, A549, 72 h
Description: Antiproliferative activity against human A549 cells assessed as inhibition of cell growth after 72 hrs by MTT assay

[6] = target: Hepatocyte growth factor receptor (Homo sapiens, UniProt P08581); experiment: Inhibition of c-Met (unknown origin) using poly (Glu, Tyr) 4:1 substrate by HTRF assay
[7] = target: Macrophage-stimulating protein receptor (Homo sapiens, UniProt Q04912); experiment: Inhibition of RON (unknown origin)
[8] = target: Mast/stem cell growth factor receptor Kit (Homo sapiens, UniProt P10721); experiment: Inhibition of c-KIT (unknown origin)
[9] = target: T1, Receptor-type tyrosine-protein kinase FLT3 (Homo sapiens, UniProt P36888); experiment: Inhibition of FLT3 (unknown origin)
T1 sequence (P36888 whole entry): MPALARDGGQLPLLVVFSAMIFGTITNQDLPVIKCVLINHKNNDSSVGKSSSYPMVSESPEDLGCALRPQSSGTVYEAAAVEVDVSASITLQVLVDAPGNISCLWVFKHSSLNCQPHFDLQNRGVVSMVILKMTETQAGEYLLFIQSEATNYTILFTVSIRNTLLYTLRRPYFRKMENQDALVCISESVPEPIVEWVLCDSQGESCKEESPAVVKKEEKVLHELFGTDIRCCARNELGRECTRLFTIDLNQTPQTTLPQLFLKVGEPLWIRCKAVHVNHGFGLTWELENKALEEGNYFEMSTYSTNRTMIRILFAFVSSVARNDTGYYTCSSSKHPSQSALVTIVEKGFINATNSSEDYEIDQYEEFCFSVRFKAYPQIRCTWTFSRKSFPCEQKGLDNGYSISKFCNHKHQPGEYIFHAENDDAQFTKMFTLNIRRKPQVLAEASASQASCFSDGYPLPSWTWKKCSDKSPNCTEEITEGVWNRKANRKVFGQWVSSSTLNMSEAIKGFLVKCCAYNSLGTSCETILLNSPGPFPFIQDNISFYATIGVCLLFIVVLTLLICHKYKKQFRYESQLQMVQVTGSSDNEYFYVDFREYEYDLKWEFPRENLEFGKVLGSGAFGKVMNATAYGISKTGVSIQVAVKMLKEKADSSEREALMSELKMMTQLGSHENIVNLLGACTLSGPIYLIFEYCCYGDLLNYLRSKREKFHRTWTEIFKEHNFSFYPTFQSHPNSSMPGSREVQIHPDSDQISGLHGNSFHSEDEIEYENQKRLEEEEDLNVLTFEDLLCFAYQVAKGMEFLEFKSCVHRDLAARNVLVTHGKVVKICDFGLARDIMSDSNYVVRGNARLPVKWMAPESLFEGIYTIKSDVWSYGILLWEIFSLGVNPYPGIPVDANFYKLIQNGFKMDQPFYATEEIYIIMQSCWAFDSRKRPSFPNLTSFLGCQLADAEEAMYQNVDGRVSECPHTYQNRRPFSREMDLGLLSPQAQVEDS

[10] = target: Vascular endothelial growth factor receptor 2 (Homo sapiens, UniProt P35968); experiment: Inhibition of KDR (unknown origin)
[11] = target: Epidermal growth factor receptor (Homo sapiens, UniProt P00533); experiment: Inhibition of EGFR (unknown origin)
Chain of Epidermal growth factor receptor (P00533 whole entry): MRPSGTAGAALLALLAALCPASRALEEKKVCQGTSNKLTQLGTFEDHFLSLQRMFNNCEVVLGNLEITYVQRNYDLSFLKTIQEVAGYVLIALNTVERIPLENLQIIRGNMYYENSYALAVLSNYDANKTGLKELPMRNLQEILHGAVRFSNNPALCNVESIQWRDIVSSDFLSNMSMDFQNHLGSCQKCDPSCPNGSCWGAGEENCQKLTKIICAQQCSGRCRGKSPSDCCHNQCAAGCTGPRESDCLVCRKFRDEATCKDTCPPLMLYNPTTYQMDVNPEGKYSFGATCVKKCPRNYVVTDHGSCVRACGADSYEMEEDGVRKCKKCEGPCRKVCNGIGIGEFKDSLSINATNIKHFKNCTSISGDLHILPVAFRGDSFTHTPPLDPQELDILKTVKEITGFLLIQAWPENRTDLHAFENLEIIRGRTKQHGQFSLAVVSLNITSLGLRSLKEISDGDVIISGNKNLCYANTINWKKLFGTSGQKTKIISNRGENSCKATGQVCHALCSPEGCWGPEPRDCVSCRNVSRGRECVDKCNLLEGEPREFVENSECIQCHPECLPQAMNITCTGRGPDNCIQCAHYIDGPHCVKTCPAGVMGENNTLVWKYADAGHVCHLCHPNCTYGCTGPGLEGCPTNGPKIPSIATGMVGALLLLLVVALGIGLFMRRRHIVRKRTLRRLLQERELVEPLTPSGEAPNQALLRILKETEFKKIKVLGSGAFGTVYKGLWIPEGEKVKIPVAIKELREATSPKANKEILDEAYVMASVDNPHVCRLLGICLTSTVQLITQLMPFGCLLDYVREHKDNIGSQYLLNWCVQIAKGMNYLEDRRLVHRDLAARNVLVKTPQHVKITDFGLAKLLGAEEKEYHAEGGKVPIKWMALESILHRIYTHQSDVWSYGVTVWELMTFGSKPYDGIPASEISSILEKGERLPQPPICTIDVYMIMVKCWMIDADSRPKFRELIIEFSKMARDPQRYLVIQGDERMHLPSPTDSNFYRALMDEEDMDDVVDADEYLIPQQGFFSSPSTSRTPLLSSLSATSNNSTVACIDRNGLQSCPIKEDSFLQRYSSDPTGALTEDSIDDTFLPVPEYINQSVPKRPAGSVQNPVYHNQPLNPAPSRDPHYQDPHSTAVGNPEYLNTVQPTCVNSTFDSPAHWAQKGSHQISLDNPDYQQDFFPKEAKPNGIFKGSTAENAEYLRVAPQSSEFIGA

Chain of Macrophage-stimulating protein receptor (Q04912 25-304 limits assumed): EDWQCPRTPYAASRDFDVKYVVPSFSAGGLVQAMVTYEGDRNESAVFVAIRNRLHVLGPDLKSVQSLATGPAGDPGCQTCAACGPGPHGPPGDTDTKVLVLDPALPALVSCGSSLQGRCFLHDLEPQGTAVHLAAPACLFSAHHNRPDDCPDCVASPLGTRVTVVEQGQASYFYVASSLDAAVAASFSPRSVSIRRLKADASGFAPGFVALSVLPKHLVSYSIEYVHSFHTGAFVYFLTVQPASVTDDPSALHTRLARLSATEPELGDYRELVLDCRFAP
Chain of Macrophage-stimulating protein receptor (Q04912 310-1400 limits assumed): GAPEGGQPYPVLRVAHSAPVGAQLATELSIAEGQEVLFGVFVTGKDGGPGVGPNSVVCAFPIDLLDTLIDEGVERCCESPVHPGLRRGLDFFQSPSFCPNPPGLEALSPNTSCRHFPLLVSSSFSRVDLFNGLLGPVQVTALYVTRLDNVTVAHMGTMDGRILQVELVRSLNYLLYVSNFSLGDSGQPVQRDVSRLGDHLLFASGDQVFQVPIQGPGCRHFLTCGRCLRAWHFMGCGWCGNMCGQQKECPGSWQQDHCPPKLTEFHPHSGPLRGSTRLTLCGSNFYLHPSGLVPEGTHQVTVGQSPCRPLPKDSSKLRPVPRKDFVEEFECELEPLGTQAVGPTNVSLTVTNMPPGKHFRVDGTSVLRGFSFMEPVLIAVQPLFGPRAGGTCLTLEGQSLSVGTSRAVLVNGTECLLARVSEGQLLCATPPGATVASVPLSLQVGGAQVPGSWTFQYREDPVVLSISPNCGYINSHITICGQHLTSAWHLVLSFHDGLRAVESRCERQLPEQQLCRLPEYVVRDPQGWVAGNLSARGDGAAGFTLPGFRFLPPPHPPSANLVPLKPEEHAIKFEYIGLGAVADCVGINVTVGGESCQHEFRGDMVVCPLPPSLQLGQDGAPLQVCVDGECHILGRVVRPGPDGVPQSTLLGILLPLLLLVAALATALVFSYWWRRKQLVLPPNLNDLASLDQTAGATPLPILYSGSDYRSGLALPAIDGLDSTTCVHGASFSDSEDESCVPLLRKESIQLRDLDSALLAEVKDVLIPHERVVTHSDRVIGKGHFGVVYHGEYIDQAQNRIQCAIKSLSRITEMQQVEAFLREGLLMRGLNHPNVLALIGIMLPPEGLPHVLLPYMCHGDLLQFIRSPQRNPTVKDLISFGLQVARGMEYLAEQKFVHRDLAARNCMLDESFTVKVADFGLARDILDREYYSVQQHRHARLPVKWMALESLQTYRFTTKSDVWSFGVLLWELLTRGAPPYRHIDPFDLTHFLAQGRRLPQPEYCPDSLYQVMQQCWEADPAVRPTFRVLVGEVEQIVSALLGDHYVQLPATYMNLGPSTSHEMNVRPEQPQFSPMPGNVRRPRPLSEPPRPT
Chain of Vascular endothelial growth factor receptor 2 (P35968 whole entry): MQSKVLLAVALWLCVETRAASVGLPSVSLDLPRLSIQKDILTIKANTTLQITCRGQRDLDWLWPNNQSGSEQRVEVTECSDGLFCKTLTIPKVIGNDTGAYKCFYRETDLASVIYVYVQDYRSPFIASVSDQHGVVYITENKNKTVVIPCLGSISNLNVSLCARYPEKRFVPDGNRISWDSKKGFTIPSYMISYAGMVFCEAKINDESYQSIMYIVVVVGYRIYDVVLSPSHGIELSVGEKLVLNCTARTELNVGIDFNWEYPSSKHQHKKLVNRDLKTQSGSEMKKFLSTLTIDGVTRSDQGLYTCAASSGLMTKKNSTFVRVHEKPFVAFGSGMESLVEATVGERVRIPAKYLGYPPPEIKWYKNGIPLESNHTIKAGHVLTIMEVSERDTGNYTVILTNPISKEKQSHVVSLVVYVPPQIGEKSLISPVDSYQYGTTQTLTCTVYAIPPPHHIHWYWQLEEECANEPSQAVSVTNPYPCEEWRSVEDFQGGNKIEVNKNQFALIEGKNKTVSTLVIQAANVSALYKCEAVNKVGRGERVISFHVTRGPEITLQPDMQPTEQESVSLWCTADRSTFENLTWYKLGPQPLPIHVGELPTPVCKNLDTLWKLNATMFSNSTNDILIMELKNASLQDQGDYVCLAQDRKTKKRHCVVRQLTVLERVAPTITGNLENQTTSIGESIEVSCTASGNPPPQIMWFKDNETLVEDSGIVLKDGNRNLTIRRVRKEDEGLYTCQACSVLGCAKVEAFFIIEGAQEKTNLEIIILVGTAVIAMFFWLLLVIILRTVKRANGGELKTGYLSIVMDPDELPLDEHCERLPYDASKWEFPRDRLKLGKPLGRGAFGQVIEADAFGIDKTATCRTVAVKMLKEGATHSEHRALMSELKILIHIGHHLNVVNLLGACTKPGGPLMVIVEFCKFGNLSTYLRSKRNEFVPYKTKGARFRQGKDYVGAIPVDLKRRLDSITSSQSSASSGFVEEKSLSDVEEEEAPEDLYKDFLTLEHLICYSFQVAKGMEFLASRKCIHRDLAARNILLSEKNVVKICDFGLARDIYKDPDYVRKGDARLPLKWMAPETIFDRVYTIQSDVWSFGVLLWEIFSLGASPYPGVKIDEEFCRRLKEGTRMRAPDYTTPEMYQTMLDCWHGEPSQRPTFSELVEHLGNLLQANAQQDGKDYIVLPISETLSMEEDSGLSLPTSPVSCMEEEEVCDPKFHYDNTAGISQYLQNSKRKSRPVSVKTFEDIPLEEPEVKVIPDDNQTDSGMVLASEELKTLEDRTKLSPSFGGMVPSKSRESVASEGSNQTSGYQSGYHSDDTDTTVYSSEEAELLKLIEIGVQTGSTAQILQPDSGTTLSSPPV
Chain of Mast/stem cell growth factor receptor Kit (P10721 whole entry): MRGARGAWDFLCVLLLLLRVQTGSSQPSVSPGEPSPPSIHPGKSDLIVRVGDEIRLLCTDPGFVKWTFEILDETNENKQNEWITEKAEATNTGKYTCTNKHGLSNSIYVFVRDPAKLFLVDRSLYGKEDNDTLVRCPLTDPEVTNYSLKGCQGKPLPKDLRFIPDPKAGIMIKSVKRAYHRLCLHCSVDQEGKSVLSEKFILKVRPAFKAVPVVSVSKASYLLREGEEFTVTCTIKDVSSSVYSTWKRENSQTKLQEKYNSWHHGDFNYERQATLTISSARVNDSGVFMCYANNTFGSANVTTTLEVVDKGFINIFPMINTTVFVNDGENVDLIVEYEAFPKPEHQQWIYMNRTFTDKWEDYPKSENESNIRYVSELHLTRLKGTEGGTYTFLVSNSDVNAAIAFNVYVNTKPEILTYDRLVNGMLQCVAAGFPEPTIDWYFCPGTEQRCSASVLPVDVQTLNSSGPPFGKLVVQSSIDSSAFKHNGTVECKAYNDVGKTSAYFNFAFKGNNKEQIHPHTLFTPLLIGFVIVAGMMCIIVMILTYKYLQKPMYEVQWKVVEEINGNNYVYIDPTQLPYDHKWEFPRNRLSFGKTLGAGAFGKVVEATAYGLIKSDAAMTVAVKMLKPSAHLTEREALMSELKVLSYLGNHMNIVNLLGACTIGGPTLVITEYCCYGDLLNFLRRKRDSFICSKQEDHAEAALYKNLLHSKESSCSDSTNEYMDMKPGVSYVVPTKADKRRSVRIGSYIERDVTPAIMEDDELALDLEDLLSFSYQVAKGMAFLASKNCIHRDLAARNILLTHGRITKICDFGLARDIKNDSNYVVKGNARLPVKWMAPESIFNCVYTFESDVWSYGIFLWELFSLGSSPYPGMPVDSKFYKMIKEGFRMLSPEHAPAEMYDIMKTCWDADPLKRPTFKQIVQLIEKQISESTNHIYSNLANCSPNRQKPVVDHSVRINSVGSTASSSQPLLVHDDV

| Structure (SMILES) | IC50 [3] [nM] | IC50 [4] [nM] | IC50 [5] [nM] | IC50 [6] [nM] | IC50 [7] [nM] | IC50 [8] [nM] | IC50 [9] [nM] | IC50 [10] [nM] | IC50 [11] [nM] | IC50 [1] [nM] | IC50 [2] [nM] |
| --- | --- | --- | --- | --- | --- | --- | --- | --- | --- | --- | --- |
| COc1cc2c(Oc3ccc(CC(=O)N/N=C/c4ccccc4)cc3F)ccnc2cc1OCCCN1CCOCC1 | 410 | 110 | 230 |  |  |  |  |  |  | 820 | 480 |
| COc1cc2c(Oc3ccc(CC(=O)N/N=C/c4ccccc4)cc3F)ccnc2cc1OCCCN1CCCCC1 | 800 | 220 | 400 |  |  |  |  |  |  | 1580 | 1020 |
| COc1cc2c(Oc3ccc(CC(=O)N/N=C/c4ccccc4)cc3F)ccnc2cc1OCCCN1CCCC1 | 340 | 83 | 140 |  |  |  |  |  |  | 720 | 420 |
| COc1cc2c(Oc3ccc(CC(=O)N/N=C/c4ccccc4)cc3F)ccnc2cc1OCCCN1CCC(C)CC1 | 810 | 170 | 340 |  |  |  |  |  |  | 2120 | 970 |
| COc1cc2c(Oc3ccc(CC(=O)N/N=C(/C)c4ccccc4)cc3F)ccnc2cc1OCCCN1CCC(C)CC1 | 950 | 200 | 390 |  |  |  |  |  |  | 2690 | 1480 |
| COc1cc2c(Oc3ccc(CC(=O)N/N=C/c4ccc(O)cc4)cc3F)ccnc2cc1OCCCN1CCOCC1 | 1300 | 310 | 560 |  |  |  |  |  |  | 3220 | 1700 |
| COc1ccc(/C=N/NC(=O)Cc2ccc(Oc3ccnc4cc(OCCCN5CCOCC5)c(OC)cc34)c(F)c2)cc1 | 1720 | 450 | 960 |  |  |  |  |  |  | 3910 | 2650 |
| COc1cc(/C=N/NC(=O)Cc2ccc(Oc3ccnc4cc(OCCCN5CCOCC5)c(OC)cc34)c(F)c2)ccc1O | 3940 | 1170 | 2980 |  |  |  |  |  |  | 11200 | 5860 |
| COc1cc2c(Oc3ccc(CC(=O)N/N=C/c4ccc(O)c(Br)c4)cc3F)ccnc2cc1OCCCN1CCOCC1 | 3670 | 1080 | 2540 |  |  |  |  |  |  |  |  |
| COc1cc2c(Oc3ccc(CC(=O)N/N=C/c4ccc(S(C)(=O)=O)cc4)cc3F)ccnc2cc1OCCCN1CCOCC1 | 480 | 100 | 250 |  |  |  |  |  |  | 1140 | 680 |
| COc1cc2c(Oc3ccc(CC(=O)N/N=C/c4ccc(OC(F)(F)F)cc4)cc3F)ccnc2cc1OCCCN1CCOCC1 | 380 | 81 | 200 |  |  |  |  |  |  | 690 | 450 |
| COc1cc2c(Oc3ccc(CC(=O)N/N=C/C(C)C)cc3F)ccnc2cc1OCCCN1CCOCC1 | 25200 | 7140 | 23000 |  |  |  |  |  |  |  |  |
| COc1cc2c(Oc3ccc(CC(=O)N/N=C/c4ccco4)cc3F)ccnc2cc1OCCCN1CCOCC1 | 2780 | 880 | 3190 |  |  |  |  |  |  |  |  |
| COc1cc2c(Oc3ccc(CC(=O)N/N=C/c4ccc[nH]4)cc3F)ccnc2cc1OCCCN1CCOCC1 | 2360 | 760 | 1220 |  |  |  |  |  |  |  |  |
| COc1cc2c(Oc3ccc(CC(=O)N/N=C/c4cccs4)cc3F)ccnc2cc1OCCCN1CCOCC1 | 960 | 280 | 390 |  |  |  |  |  |  | 1820 | 1150 |
| COc1cc2c(Oc3ccc(CC(=O)N/N=C/c4ccncc4)cc3F)ccnc2cc1OCCCN1CCOCC1 | 320 | 94 | 160 |  |  |  |  |  |  | 790 | 500 |

The next lines start with results.

| IC50 [3] [nM] | IC50 [4] [nM] | IC50 [5] [nM] | IC50 [6] [nM] | IC50 [7] [nM] | IC50 [8] [nM] | IC50 [9] [nM] | IC50 [10] [nM] | IC50 [11] [nM] | Structure (SMILES) | IC50 [1] [nM] | IC50 [2] [nM] |
| --- | --- | --- | --- | --- | --- | --- | --- | --- | --- | --- | --- |
| 540 | 190 | 350 |  |  |  |  |  |  | COc1cc2c(Oc3ccc(CC(=O)N/N=C(/C)c4ccccc4)cc3F)ccnc2cc1OCCCN1CCOCC1 | 970 | 610 |
| 970 | 340 | 520 |  |  |  |  |  |  | COc1cc2c(Oc3ccc(CC(=O)N/N=C(/C)c4ccccc4)cc3F)ccnc2cc1OCCCN1CCCCC1 | 1990 | 1380 |
| 440 | 99 | 280 |  |  |  |  |  |  | COc1cc2c(Oc3ccc(CC(=O)N/N=C(/C)c4ccccc4)cc3F)ccnc2cc1OCCCN1CCCC1 | 760 | 590 |
| 220 | 55 | 110 |  |  |  |  |  |  | COc1cc2c(Oc3ccc(CC(=O)N/N=C/c4ccc(C(F)(F)F)cc4)cc3F)ccnc2cc1OCCCN1CCOCC1 | 490 | 300 |
| 260 | 67 | 140 |  |  |  |  |  |  | COc1cc2c(Oc3ccc(CC(=O)N/N=C/c4ccc(F)cc4)cc3F)ccnc2cc1OCCCN1CCCC1 | 560 | 420 |
| 280 | 75 | 170 |  |  |  |  |  |  | COc1cc2c(Oc3ccc(CC(=O)N/N=C/c4ccc(Cl)cc4)cc3F)ccnc2cc1OCCCN1CCCC1 | 620 | 400 |
| 480 | 82 | 320 |  |  |  |  |  |  | COc1cc2c(Oc3ccc(CC(=O)N/N=C/c4ccccc4F)cc3F)ccnc2cc1OCCCN1CCCC1 | 980 | 810 |
| 200 | 58 | 130 |  |  |  |  |  |  | COc1cc2c(Oc3ccc(CC(=O)N/N=C/c4ccc(OC(F)(F)F)cc4)cc3F)ccnc2cc1OCCCN1CCCC1 | 460 | 330 |
| 150 | 31 | 80 | 1.86 | 28.6 | 45 | 390 | 560 | > 100000 | COc1cc2c(Oc3ccc(CC(=O)N/N=C/c4ccc(C(F)(F)F)cc4)cc3F)ccnc2cc1OCCCN1CCCC1 | 370 | 290 |
| 280 | 72 | 170 |  |  |  |  |  |  | COc1cc2c(Oc3ccc(CC(=O)N/N=C(/C)c4ccc(F)cc4)cc3F)ccnc2cc1OCCCN1CCCC1 | 580 | 350 |
| 290 | 83 | 190 |  |  |  |  |  |  | COc1cc2c(Oc3ccc(CC(=O)N/N=C(/C)c4ccc(Cl)cc4)cc3F)ccnc2cc1OCCCN1CCCC1 |  |  |
| 780 | 180 | 410 |  |  |  |  |  |  | COc1cc2c(Oc3ccc(CC(=O)N/N=C(/C)c4ccc(O)cc4)cc3F)ccnc2cc1OCCCN1CCCC1 | 1680 | 1160 |
| 190 | 46 | 96 |  |  |  |  |  |  | COc1cc2c(Oc3ccc(CC(=O)N/N=C(/C)c4ccc(C(F)(F)F)cc4)cc3F)ccnc2cc1OCCCN1CCCC1 | 420 | 370 |
| 260 | 71 | 170 |  |  |  |  |  |  | COc1cc2c(Oc3ccc(CC(=O)N/N=C(/C)c4ccc(C(F)(F)F)cc4)cc3F)ccnc2cc1OCCCN1CCOCC1 | 590 | 390 |
| 450 | 130 | 290 |  |  |  |  |  |  | COc1cc2c(Oc3ccc(CC(=O)N/N=C(/C)c4ccc(C(F)(F)F)cc4)cc3F)ccnc2cc1OCCCN1CCCCC1 | 940 | 590 |
| 360 | 96 | 220 |  |  |  |  |  |  | COc1cc2c(Oc3ccc(CC(=O)N/N=C(/C)c4ccc(C(F)(F)F)cc4)cc3F)ccnc2cc1OCCCN1CCC(C)CC1 | 840 | 510 |
